Experimental findings from ChEMBL document CHEMBL3585332, “Antimalarial Isocyano and Isothiocyanato Sesquiterpenes with Tri- and Bicyclic Skeletons from the Nudibranch Phyllidia ocellata” (J Nat Prod, 2015) are described below.

The test system of assay [1] is Plasmodium falciparum. The experiment in a line: Antimalarial activity against drug-resistant asynchronous Plasmodium falciparum Dd2 infected in erythrocytes assessed as parasite growth inhibition at 10 uM after 48 hrs by [3H]-hypoxanthine incorporation assay relative to control. Format: functional. To be noted: read-out: GI.
Assay [2] can be described thus: Selectivity ratio of IC50 for human NFF to IC50 for chloroquine-sensitive asynchronous Plasmodium falciparum 3D7.
Assay [3] concerns Plasmodium falciparum. The experiment in a line: Antimalarial activity against chloroquine-sensitive asynchronous Plasmodium falciparum 3D7 infected in erythrocytes assessed as parasite growth inhibition after 48 hrs by [3H]-hypoxanthine incorporation assay. Format: functional, organism-based.
Assay [4] in a line: Selectivity ratio of IC50 for human NFF to IC50 for drug-resistant asynchronous Plasmodium falciparum Dd2.
In assay [5] the test system is Plasmodium falciparum. The assay is described as follows: Antimalarial activity against drug-resistant asynchronous Plasmodium falciparum Dd2 infected in erythrocytes assessed as parasite growth inhibition after 48 hrs by [3H]-hypoxanthine incorporation assay. Format: functional, organism-based.

In the case of `[C-]#[N+][C@]1(C)[C@H](C)C[C@@H]2C[C@H](C)[C@H]3CC[C@](C)([N+]#[C-])[C@H]4CC[C@H]1[C@@H]2[C@H]34` [DIISOCYANOADOCIANE], the inhibition of growth at 10 µM in the assay with Plasmodium falciparum [1] turned out to be 98.3%.
On the same count and under the same terms, next, `[C-]#[N+][C@@H]1[C@H]2C(=C)CCC[C@]2(C)CC[C@H]1C(C)C`: 98.3%.
Consider `[C-]#[N+]C1=CC(C)(C)[C@@H]2CC[C@@]3(C)CCC[C@@]12C3`, for which the Ratio IC50 in assay [2] and in assay [4] was 45 in each case. The results for the IC50 with Plasmodium falciparum [3] and in the assay with Plasmodium falciparum [5] were 300 nM and 360 nM, respectively. The inhibition of growth at 10 µM in the assay on Plasmodium falciparum [1] worked out at 98.3%.
As for `[C-]#[N+][C@@H]1CCC(C)=C[C@@H]2[C@@H](C(C)C)CC[C@]21C`, the Ratio IC50 in assay [2] and in assay [4] was 45 in each case. Also, the values for the IC50 in the assay on Plasmodium falciparum [3] and with Plasmodium falciparum [5] were 260 nM and 870 nM, respectively. The inhibition of growth at 10 µM in the assay on Plasmodium falciparum [1] is 98.3%.
On to `[C-]#[N+][C@@H]1[C@H](C(C)C)CC[C@@H](C)[C@@]12C=C(C)CC2` [AXISONITRILE 3], for which the inhibition of growth at 10 µM in the assay with Plasmodium falciparum [1] was determined as 98.3%.
For `CC1(C)C=C(NC=O)[C@]23CCC[C@](C)(CC[C@@H]12)C3`, the IC50 in the assay with Plasmodium falciparum [3] is more than 10000 nM. For the same molecule, the inhibition of growth at 10 µM in the assay on Plasmodium falciparum [1] is less than 50%.
For `CC1(C)C[C@@H]2[C@H]1CC[C@@]1(C)CCC[C@]2(N=C=S)C1`, in that order: more than 10000 nM and less than 50%.
For `[C-]#[N+][C@@H]1CC(C)(C)[C@@H]2CC[C@@]3(C)CCC[C@@]12C3`, the Ratio IC50 in assay [2] and in assay [4] was 45 each time. In addition, the half-maximal inhibitory concentration (IC50) in the assay with Plasmodium falciparum [3] amounted to 290 nM; in the assay on Plasmodium falciparum [5], 830 nM. The inhibition of growth at 10 µM with Plasmodium falciparum [1] came out at 98.3%.

In general, IC50 refers to the concentration at which inhibition is half-maximal.
